# In ChEMBL document CHEMBL5212743, “Selectivity Literature for EUbOPEN Chemogenomics Library wave 3” (2023):
# Tests used:
# [1] = molecular target: Serine/threonine-protein kinase RIO3 (Homo sapiens) (UniProt O14730); experiment: Selectivity interaction (KinomeScan (DiscoverX)) EUB0000698a RIOK3; settings: at 10 µM
# [2] = molecular target: T1, Phosphatidylinositol 5-phosphate 4-kinase type-2 beta (Homo sapiens) (UniProt P78356); experiment: Selectivity interaction (KinomeScan (DiscoverX)) EUB0000698a PIP4K2B; settings: at 10 µM
# T1 sequence (whole entry): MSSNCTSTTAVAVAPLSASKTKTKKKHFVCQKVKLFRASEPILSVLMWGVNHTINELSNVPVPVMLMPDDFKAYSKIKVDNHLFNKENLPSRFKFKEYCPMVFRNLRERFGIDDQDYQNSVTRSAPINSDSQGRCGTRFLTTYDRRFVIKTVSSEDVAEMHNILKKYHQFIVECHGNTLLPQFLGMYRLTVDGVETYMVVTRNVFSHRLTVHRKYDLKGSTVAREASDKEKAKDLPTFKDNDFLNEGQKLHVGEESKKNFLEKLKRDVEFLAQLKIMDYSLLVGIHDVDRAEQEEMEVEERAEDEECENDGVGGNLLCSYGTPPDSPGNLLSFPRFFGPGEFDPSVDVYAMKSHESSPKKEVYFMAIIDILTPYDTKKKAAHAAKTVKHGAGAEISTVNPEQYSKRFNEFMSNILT
# [3] = molecular target: Platelet-derived growth factor receptor beta (Homo sapiens, UniProt P09619); settings: at 1 µM
# Platelet-derived growth factor receptor beta, sequence (P09619 whole entry): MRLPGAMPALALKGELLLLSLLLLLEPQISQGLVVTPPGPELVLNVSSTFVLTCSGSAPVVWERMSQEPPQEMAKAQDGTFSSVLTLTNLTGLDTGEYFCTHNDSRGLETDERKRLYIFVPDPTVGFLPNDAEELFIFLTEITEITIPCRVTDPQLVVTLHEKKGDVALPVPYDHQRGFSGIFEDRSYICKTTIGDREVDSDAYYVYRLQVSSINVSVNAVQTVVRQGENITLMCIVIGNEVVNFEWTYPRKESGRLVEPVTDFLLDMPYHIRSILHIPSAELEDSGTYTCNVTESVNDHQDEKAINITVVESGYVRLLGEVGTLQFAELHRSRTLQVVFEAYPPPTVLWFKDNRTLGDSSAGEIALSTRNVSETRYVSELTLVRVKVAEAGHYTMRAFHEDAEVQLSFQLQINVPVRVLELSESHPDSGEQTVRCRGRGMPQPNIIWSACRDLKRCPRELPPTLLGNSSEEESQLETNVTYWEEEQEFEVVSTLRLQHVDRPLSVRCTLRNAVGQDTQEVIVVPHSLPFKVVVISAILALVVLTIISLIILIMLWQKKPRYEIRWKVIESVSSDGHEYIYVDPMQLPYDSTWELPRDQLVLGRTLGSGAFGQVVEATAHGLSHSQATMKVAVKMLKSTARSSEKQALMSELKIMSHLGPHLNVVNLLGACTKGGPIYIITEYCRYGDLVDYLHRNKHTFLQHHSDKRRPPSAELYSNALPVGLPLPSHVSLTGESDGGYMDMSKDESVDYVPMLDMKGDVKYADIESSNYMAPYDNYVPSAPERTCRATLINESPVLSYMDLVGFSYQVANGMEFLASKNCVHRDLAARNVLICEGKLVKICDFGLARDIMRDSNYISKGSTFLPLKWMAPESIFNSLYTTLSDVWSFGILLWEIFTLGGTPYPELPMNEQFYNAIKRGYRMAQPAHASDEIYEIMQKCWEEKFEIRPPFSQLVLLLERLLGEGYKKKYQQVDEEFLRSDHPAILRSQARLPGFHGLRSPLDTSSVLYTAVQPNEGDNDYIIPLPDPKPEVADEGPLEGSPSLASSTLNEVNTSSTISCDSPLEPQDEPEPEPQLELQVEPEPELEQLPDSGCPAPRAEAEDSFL
# [4] = molecular target: NT-3 growth factor receptor (Homo sapiens, UniProt Q16288); settings: at 1 µM
# NT-3 growth factor receptor, sequence (Q16288 whole entry, looked up): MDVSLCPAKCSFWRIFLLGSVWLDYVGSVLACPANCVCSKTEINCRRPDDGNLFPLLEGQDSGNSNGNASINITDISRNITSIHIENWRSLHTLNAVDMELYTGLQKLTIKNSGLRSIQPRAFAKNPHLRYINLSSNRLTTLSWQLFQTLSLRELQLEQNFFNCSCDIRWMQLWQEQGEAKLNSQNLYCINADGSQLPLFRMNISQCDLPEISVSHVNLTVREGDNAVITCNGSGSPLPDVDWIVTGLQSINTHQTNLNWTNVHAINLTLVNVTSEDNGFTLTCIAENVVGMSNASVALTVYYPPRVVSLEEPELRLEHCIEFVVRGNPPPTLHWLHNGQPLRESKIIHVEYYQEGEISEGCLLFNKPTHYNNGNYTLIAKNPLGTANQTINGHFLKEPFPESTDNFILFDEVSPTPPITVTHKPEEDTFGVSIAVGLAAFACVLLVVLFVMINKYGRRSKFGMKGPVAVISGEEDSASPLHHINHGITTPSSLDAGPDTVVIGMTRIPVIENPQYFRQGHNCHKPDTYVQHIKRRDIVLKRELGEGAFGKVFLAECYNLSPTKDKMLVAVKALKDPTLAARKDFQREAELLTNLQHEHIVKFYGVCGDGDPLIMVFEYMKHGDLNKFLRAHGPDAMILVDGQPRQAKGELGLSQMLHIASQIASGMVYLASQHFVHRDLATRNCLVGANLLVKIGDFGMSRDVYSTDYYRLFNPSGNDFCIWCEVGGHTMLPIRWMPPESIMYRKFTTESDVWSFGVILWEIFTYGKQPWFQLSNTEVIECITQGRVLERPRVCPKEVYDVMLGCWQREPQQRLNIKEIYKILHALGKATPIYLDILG
# [5] = molecular target: T2, Mitogen-activated protein kinase kinase kinase 19 (Homo sapiens) (UniProt Q56UN5); experiment: Selectivity interaction (KinomeScan (DiscoverX)) EUB0000702a MAP3K19; settings: at 1 µM
# T2 sequence (whole entry): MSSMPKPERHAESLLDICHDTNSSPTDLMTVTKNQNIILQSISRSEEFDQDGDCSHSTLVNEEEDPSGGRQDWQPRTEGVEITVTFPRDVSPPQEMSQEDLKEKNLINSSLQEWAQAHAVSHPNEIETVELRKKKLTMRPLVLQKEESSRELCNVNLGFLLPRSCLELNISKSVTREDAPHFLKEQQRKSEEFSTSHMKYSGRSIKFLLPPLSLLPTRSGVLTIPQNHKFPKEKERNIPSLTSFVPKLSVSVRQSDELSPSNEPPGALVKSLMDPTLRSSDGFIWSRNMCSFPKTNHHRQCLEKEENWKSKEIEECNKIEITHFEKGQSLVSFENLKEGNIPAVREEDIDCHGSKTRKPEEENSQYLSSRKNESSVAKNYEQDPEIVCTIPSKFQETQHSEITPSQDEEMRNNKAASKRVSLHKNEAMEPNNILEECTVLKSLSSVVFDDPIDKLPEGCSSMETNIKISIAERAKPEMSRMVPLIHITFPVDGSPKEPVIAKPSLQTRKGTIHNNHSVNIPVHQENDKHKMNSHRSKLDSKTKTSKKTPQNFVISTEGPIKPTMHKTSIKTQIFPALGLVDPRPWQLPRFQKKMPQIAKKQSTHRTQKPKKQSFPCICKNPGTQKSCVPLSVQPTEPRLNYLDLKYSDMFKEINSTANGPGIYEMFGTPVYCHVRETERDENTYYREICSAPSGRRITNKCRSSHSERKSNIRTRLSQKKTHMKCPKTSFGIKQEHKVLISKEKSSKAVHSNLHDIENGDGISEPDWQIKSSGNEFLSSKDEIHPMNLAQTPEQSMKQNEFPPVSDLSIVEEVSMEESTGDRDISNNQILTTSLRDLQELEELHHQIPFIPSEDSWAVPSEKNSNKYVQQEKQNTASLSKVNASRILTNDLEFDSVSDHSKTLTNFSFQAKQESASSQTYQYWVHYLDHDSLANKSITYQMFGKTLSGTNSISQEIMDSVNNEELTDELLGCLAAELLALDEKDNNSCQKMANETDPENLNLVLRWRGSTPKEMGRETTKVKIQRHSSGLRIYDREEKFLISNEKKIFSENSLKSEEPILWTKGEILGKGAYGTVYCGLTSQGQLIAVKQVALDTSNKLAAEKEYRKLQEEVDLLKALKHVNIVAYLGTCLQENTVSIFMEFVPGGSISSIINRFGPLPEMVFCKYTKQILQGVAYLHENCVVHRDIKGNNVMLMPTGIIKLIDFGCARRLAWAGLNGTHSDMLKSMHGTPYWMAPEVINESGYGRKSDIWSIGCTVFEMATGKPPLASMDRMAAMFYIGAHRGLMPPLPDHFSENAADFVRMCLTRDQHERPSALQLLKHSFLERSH
# [6] = molecular target: Receptor-type tyrosine-protein kinase FLT3 (Homo sapiens) (UniProt P36888); experiment: (§1) Selectivity interaction (KinomeScan (DiscoverX)) EUB0000702a FLT3; settings: at 1 µM
# [7] = tested on: T3, Receptor-type tyrosine-protein kinase FLT3 (Homo sapiens), P36888 [N841I]; experiment: as §1; settings: at 1 µM
# T3 sequence (whole entry): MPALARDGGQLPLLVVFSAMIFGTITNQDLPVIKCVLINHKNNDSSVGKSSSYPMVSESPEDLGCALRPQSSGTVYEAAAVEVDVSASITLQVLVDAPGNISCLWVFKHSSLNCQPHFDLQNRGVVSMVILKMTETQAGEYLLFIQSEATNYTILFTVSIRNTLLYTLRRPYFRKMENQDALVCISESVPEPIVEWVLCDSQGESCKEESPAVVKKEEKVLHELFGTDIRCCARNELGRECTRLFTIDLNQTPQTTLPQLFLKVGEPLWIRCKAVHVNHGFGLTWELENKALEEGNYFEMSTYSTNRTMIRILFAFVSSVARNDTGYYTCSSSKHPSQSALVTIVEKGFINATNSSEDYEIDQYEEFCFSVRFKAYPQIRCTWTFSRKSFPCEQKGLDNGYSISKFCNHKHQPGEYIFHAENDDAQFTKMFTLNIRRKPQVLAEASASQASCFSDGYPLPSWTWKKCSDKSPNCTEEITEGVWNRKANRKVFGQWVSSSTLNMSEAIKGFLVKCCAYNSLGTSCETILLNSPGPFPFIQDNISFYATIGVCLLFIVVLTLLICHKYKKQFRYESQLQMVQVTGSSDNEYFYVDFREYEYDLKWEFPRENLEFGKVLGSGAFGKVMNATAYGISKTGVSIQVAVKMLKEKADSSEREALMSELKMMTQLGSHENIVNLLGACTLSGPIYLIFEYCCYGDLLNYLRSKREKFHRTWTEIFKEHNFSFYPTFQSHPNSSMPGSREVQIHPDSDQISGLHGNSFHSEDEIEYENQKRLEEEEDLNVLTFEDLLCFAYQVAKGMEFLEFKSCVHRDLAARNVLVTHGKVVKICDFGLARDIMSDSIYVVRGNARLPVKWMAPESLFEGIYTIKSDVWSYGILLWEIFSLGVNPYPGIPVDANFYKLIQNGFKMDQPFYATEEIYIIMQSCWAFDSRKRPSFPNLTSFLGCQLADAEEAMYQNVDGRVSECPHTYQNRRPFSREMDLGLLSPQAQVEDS
# [8] = tested on: Receptor-type tyrosine-protein kinase FLT3 (Homo sapiens), P36888 [UNDEFINED MUTATION]; experiment: as §1; settings: at 1 µM
# Serine/threonine-protein kinase RIO3 (Homo sapiens), sequence (O14730 whole entry): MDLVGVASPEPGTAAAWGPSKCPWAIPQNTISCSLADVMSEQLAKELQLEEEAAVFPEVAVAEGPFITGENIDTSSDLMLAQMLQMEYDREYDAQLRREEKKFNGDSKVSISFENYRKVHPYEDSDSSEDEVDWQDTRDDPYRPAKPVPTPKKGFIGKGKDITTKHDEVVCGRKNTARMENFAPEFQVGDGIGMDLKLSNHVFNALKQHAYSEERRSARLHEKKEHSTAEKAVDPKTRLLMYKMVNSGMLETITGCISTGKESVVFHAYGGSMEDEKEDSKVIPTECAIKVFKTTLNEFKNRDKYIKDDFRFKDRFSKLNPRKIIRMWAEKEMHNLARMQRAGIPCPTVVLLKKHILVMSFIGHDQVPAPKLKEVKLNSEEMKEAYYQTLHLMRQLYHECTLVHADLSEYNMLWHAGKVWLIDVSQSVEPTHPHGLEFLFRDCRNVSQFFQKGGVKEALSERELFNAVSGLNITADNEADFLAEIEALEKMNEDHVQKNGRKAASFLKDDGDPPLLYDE
compound,measurement,setting,value
COc1cc2ncn(-c3cc(OCc4ccccc4C(F)(F)F)c(C(N)=O)s3)c2cc1OC [GW843682X],% of control,[1],4.2%
same,% of control,[2],6.6%
CCOc1cn(-c2ccc(F)cc2C)nc1C(=O)Nc1ccc(Oc2ccnc3cc(OC)c(OC)cc23)c(F)c1,% of control,[3],< 10%
same,% of control,[4],< 10%
CN(c1ccnc(CNc2nc(Nc3ccc4c(c3)CC(=O)N4)ncc2C(F)(F)F)n1)S(C)(=O)=O [PF-00911705],% of control,[5],0.4%
same,% of control,[6],5.5%
same,% of control,[7],0%
same,% of control,[8],0.7%
